Test results reported in patent US7199113B2, “Pharmaceutically active compounds and methods of use thereof” (priority 1998, dated 2007).

Assays:
Type in all cases: biochemical
FXa = molecular target: T1, FXa (Homo sapiens, UniProt P00742); test: FXa activity assay; conditions: statement on Table 1 (FIG. 2(a))
T1 construct: FX is converted to FXa by TF/VIIa complex in the absence of any compound; purchased Enzyme Research Laboratories Inc
Protocol: FX is converted to FXa by TF/VIIa complex in the absence of any compound. To do that, 54 μl of TF/VIIa (50 nM) was added to 27 ml of buffer in a 50-ml tube. Then 6 ml of FX (180 nM) was added and incubated at 37° C. for 15 minutes. Six ml of EDTA was added to stop FX activation. Five μl of compound or DMSO was placed in each well of a 96-well plate in duplicate, then 65 μl of FXa generated above was added to each well and mixed. After incubation for 15 minutes at 37° C., 10 μl of FXa substrate Spectrozyme FXa was added and incubated for 20 minutes at 37° C. Absorbance at 405 nm was then measured following addition of 20 μl of 50% acetic acid. The percent inhibition of FXa activity was calculated from OD405 nm values in the absence and presence of a compound.

TF/FVIIa complex = molecular target: T2, TF/FVIIa complex (Homo sapiens, UniProt P08709+P13726, DEL276-295); test: FVIIa activity assay (TF/VIIa catalytic activity toward S-2288); conditions: statement on Table 1 (FIG. 2(a))
T2 construct: proteolytic cleavage of the zymogen FVII to the active serine protease FVIIa; Truncated recombinant human tissue factor (e.g. composed of 243 amino acids) is expressed in E. coli; host or cells: E. coli (TF)
Protocol: Factor VIIa (FVIIa) activity, or the effect of TF and FVIIa interactions, can be determined in the presence of TF using FX and a small peptide (chromogenic) substrate or in the absence of TF using FX as substrate. Assays using FVIIa-specific chromogenic substrate S-2288 directly measures the effect of a compound on FVIIa catalytic activity. In this assay, 55 μl of TF/FVIIa complex (containing 10 nM TF and 10 nM VIIa) was first incubated with 5 μl of DMSO (or diluted DMSO) or compound, in a 96-well plate for 15 minutes at 37° C., then admixed with 20 μl of 8 mM S-2288. The reaction was incubated for 1–2 hours at 37° C. Absorbance at 405 nm was then measured after the reaction was quenched with 20 μl of 50% acetic acid. The percent inhibition of TF/VIIa activity was calculated from OD405 nm values in the absence and presence of a compound. […] Inhibition of TF/VIIa activity toward S-2288 by the two compounds would be expected if they were to bind to VIIa active site or prevent TF and VIIa from forming an active complex.

FIXa = molecular target: T3, FIXa (Homo sapiens, UniProt P00740); test: FIXa-dependent FX activation assay; conditions: statement on Table 2 (FIG. 2(b))
T3 construct: FIX was first converted to FIXa by TF/VIIa in the absence of compound; purchased Enzyme Research Laboratories Inc
T3 sequence (P00740 227-461 limits assumed): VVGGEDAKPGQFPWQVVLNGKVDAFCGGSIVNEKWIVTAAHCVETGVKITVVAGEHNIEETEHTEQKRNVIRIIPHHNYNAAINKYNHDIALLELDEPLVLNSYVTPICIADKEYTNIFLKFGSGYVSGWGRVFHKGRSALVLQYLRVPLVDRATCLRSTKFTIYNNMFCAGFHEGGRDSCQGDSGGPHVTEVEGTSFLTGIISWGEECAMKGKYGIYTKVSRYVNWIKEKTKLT
T3 sequence (P00740 47-191 limits assumed): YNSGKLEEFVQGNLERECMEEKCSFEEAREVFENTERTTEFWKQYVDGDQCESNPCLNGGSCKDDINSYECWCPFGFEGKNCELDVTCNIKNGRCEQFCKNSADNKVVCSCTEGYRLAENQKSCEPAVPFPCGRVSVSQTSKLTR
Protocol: FIX was first converted to FIXa by TF/VIIa in the absence of compound. This was done in a 50-ml tube. After incubating TF/VIIa (0.67 nM, 10 ml) at 37° C. for 15 minutes, FIX (300 nM, 0.123 ml) was added and incubated at 37° C. for 30 minutes. Then 1.54 ml of EDTA (400 mM) was added to stop the FIX activation. Then 65 μl of the above FIXa sample was transferred into wells of a 96-well plate that contain 5 μl of diluted DMSO (or buffer) or compound (in diluted DMSO or buffer). Ten μl of FX (1000 nM), 10 μl of polylysine (300 nM), and 10 μl of Spectrozyme FXa (5 mM) were added to each well and incubate at 37° C. until an OD405 nm value of ˜0.8 was reached. Absorbance at 405 nm was then measured following addition of 20 μl of 50% acetic acid. The percent inhibition of FIXa activity was calculated from OD405 nm values in the absence and presence of a compound.

T1 sequence (P00742 235-488 limits assumed): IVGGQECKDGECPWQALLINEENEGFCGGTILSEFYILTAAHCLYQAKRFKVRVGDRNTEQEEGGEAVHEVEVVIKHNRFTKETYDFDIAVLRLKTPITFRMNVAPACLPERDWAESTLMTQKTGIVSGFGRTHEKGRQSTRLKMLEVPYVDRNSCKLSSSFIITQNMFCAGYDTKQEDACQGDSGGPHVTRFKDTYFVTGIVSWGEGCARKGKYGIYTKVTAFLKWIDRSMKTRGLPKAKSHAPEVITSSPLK
T1 sequence (P00742 41-179 limits assumed): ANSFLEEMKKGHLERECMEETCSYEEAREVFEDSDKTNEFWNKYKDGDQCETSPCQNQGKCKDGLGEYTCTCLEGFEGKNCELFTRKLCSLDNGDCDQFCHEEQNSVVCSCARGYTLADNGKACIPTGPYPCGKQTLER

SMILES	inhibition of FXa activity (FXa)	effect on TF/VIIa catalytic activity toward S-2288 (TF/FVIIa complex)	inhibition of FIXa activity (FIXa-dependent FX activation) (FIXa)
O=P(O)(O)C(CNc1cccc(O)c1)P(=O)(O)O [Compound 1, 1-(bisphosponate)-2-amino(3-hydroxyphenyl)ethyl]	do not inhibit FXa activity	do not have significant effect	do not inhibit FIXa activity
O=P(O)(O)C(CNc1ccc(O)cc1)P(=O)(O)O [Compound 2]	do not inhibit FXa activity	do not have significant effect	do not inhibit FIXa activity
